# Biological target: Cannabinoid receptor 1 (Homo sapiens, UniProt P21554)
# Test: ChEBML_1680109
# Text: Agonist activity at human CB1 receptor expressed in mouse AtT-20 cells co expressing GIRK by FLIPR assay
# Sequence of Cannabinoid receptor 1 (P21554 whole entry): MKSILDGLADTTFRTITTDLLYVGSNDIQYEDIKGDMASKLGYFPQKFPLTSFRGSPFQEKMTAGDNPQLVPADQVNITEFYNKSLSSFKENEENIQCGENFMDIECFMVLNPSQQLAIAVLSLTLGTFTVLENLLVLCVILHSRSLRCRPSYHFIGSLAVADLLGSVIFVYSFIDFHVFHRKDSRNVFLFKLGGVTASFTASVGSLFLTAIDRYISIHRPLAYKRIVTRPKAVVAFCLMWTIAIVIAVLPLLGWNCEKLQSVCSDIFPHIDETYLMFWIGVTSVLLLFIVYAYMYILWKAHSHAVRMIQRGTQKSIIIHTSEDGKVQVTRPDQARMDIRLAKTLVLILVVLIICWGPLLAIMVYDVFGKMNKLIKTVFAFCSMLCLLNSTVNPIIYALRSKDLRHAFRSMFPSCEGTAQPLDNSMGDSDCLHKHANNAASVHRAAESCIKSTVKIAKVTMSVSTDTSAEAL
smiles,measurement,value
CC(C)[C@H](NC(=O)c1nn(Cc2ccc(F)cc2)c2ccccc12)C(N)=O,EC50,2.1 nM
